Experimental data from the kinase profiling compilation of Christmann-Franck et al. (2016).

What was measured:
Assay in all cases: radiometric filter-binding kinase assay
PHKG1 (human) = PHKG1 (human) (UniProt Q16816)
RPS6KA1 KD1 KD2 (human) = RPS6KA1 KD1 KD2 (human) (UniProt Q15418)
IKBKB (human) = IKBKB (human) (UniProt O14920)
MAP3K5 (human) = MAP3K5 (human) (UniProt Q99683)
MAPK15 (human) = MAPK15 (human) (UniProt Q8TD08)
PKN2 (human) = PKN2 (human) (UniProt Q16513)
MAP3K1 (human) = MAP3K1 (human) (UniProt Q13233)
NEK2 (human) = NEK2 (human) (UniProt P51955)
PRKAA1 or PRKAA2 (rat) = conditions: accession and sequence are those of the human protein
IGF1R (human) = IGF1R (human) (UniProt P08069)
MAPK1 (human) = MAPK1 (human) (UniProt P28482)
CHEK2 (human) = CHEK2 (human) (UniProt O96017)
MAPKAPK2 (human) = MAPKAPK2 (human) (UniProt P49137)
MARK2 (human) = MARK2 (human) (UniProt Q7KZI7)
MKNK1 (human) = MKNK1 (human) (UniProt Q9BUB5)
AURKB (human) = AURKB (human) (UniProt Q96GD4)
PIM2 (human) = PIM2 (human) (UniProt Q9P1W9)
GCK (human) = GCK (human) (UniProt Q12851)
[1] = target: STK11 CAB39 STRADA (human) (UniProt Q9Y376+Q7RTN6+Q15831)
YES1 (human) = YES1 (human) (UniProt P07947)
SRC (human) = SRC (human) (UniProt P12931)
PRKACA (human) = PRKACA (human) (UniProt P17612)
CHEK1 (human) = CHEK1 (human) (UniProt O14757)
MAPK10 (human) = MAPK10 (human) (UniProt P53779)
EPHB4 (human) = EPHB4 (human) (UniProt P54760)
STK3 (human) = STK3 (human) (UniProt Q13188)
PRKCA (human) = PRKCA (human) (UniProt P17252)
MAPK3 (human) = MAPK3 (human) (UniProt P27361)
NTRK1 (human) = NTRK1 (human) (UniProt P04629)
MAPK9 (human) = MAPK9 (human) (UniProt P45984)
CAMKK2 (human) = CAMKK2 (human) (UniProt Q96RR4)
[2] = system: AKT2 (human), P31751 [S474D]
MINK1 (human) = MINK1 (human) (UniProt Q8N4C8)
MKNK2 (human) = MKNK2 (human) (UniProt Q9HBH9)
MAP2K1 (human) = MAP2K1 (human) (UniProt Q02750)

MAPK15 (human), sequence (Q8TD08 whole entry, looked up): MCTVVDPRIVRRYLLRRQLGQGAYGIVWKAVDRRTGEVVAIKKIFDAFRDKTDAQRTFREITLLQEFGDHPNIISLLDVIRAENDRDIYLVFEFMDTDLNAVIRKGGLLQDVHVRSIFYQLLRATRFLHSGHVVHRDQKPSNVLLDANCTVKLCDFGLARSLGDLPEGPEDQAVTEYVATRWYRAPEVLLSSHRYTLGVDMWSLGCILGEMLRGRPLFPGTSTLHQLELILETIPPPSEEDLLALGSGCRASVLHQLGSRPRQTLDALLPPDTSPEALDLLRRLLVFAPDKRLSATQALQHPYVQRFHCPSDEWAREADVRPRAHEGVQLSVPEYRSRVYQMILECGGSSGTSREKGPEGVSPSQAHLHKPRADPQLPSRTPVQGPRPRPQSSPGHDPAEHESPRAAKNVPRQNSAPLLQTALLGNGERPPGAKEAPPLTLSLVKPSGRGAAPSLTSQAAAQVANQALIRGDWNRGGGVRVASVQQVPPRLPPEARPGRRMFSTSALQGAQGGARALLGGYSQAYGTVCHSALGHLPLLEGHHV
MAPK10 (human), sequence (P53779 whole entry, looked up): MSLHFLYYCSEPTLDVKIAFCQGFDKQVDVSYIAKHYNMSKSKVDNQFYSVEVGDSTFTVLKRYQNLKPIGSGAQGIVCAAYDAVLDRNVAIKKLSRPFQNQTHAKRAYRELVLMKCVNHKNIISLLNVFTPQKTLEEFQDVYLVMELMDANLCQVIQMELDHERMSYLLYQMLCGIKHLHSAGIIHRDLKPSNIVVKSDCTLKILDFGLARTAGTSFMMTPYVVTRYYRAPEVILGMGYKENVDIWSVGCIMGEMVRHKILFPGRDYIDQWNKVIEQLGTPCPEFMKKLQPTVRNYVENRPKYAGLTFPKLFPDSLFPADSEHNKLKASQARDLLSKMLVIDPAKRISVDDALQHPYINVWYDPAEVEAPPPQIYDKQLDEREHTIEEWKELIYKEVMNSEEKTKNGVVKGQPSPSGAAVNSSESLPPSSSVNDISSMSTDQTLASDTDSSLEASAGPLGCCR
MAP3K1 (human), sequence (Q13233 whole entry, looked up): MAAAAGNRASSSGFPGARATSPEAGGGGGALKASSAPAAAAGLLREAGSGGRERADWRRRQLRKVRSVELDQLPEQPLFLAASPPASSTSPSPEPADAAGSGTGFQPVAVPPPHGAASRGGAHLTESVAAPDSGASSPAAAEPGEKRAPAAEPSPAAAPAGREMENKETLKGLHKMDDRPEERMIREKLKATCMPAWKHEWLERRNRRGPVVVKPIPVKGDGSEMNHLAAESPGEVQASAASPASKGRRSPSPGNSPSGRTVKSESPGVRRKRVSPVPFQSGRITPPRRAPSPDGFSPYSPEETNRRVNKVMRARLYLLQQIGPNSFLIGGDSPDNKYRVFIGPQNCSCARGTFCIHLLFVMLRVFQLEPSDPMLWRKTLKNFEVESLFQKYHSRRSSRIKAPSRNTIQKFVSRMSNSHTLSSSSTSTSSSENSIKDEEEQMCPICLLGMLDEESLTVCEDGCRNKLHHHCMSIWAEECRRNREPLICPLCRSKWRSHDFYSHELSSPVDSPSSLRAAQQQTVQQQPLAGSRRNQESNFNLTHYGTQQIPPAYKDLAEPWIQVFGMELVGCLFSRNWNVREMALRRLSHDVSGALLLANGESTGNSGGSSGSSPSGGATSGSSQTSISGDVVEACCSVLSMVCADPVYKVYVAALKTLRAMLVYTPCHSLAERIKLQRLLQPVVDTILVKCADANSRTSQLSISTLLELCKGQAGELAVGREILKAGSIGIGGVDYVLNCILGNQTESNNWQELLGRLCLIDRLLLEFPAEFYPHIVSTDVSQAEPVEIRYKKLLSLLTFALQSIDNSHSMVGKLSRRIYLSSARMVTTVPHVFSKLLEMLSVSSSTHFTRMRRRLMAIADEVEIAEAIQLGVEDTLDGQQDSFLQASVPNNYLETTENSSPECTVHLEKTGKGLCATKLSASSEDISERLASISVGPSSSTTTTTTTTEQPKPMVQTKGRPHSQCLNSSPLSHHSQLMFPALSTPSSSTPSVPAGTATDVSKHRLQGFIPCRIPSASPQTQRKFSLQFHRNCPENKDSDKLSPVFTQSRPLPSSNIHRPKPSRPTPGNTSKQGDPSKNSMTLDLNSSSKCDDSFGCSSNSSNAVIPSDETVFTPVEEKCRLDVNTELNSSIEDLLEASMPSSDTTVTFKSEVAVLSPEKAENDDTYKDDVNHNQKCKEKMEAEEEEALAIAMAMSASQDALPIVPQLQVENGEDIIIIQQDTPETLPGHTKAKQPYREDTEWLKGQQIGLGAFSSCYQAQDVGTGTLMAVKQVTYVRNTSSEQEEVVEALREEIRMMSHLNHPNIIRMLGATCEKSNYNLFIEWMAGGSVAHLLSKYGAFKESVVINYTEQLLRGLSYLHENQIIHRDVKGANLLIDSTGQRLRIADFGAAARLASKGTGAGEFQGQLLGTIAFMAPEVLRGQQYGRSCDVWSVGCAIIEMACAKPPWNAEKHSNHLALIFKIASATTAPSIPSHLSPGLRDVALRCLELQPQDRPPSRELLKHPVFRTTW
GCK (human), sequence (Q12851 whole entry, looked up): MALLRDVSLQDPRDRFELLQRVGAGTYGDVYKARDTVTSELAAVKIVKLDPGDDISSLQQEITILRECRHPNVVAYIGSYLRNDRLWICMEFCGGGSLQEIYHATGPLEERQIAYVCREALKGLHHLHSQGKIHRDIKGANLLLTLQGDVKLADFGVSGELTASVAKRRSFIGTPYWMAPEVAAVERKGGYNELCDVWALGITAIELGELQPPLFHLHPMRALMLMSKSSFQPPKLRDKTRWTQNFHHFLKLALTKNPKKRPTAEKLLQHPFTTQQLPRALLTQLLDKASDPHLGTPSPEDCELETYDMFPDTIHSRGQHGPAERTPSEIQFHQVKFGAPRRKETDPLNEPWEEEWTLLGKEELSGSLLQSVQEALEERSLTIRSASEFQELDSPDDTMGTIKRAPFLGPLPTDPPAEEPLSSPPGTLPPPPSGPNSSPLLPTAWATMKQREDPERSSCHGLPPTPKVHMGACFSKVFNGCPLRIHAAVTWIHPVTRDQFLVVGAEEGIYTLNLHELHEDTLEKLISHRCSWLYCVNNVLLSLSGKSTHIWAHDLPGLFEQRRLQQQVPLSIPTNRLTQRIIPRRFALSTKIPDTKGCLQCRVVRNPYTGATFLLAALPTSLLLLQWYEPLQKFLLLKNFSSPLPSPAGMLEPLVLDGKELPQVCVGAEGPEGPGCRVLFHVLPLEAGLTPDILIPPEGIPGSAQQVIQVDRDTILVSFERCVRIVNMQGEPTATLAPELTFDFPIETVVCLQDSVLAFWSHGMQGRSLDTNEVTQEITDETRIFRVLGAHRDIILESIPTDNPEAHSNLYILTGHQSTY
MAPK1 (human), sequence (P28482 whole entry, looked up): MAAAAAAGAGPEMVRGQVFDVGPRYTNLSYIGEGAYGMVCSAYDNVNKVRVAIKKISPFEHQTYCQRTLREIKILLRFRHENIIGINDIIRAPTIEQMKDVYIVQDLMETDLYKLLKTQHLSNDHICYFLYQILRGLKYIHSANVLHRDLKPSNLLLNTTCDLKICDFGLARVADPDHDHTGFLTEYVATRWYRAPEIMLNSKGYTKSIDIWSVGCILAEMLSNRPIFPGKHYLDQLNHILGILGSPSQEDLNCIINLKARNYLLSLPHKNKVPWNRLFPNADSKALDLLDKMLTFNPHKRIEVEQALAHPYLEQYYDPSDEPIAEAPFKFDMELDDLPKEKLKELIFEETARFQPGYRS
MAPK3 (human), sequence (P27361 whole entry, looked up): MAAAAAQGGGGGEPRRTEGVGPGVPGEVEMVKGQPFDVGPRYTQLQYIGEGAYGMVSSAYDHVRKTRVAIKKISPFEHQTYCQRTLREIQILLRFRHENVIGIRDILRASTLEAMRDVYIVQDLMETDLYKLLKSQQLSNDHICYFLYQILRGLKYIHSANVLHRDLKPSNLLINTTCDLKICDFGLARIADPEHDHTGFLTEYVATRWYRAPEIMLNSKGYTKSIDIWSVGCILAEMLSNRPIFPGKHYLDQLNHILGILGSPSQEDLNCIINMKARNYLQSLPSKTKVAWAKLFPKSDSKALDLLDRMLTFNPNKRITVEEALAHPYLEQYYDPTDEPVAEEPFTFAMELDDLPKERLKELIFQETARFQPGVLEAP
NEK2 (human), sequence (P51955 whole entry, looked up): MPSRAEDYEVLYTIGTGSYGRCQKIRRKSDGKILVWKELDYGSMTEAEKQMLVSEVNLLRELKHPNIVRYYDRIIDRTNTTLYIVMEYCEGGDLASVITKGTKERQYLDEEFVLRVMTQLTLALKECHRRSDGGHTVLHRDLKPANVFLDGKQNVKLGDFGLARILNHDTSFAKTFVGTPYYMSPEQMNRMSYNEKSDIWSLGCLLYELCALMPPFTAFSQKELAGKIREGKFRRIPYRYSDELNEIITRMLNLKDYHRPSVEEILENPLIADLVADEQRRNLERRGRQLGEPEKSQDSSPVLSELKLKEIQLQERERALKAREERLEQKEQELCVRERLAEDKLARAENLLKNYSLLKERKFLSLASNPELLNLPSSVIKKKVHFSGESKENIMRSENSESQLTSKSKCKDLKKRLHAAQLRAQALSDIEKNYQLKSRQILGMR
MKNK2 (human), sequence (Q9HBH9 whole entry, looked up): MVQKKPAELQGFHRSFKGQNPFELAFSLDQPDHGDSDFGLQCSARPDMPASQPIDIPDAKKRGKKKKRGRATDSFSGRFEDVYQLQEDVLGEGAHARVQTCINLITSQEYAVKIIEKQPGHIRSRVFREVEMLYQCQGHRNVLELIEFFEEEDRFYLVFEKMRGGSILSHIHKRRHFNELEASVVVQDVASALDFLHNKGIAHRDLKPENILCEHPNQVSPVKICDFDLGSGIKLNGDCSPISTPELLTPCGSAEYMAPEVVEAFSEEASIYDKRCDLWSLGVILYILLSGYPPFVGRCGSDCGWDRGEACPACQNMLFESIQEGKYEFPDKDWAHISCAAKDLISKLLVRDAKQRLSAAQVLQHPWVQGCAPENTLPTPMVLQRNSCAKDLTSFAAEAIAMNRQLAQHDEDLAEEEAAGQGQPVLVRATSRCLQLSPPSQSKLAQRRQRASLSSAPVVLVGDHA

In the case of `CC(C)(C#N)c1ccc(N2C(=O)OCc3cnc4ccc(-c5cnc6ccccc6c5)cc4c32)cc1`, the residual activity (PHKG1 (human); compound 1.0 µM) is reported as 97%, the residual activity (PHKG1 (human); compound 10.0 µM) is reported as 92% and the residual activity (RPS6KA1 KD1 KD2 (human); compound 1.0 µM) is reported as 96%. It also gave a residual activity (RPS6KA1 KD1 KD2 (human); compound 10.0 µM) of 73%, a residual activity (IKBKB (human); compound 1.0 µM) of 86% and a residual activity (IKBKB (human); compound 10.0 µM) of 87%. For the same compound, the residual activity (MAP3K5 (human); compound 1.0 µM) was 117%, the residual activity (MAP3K5 (human); compound 10.0 µM) was 111% and the residual activity (MAPK15 (human); compound 1.0 µM) was 73%. For the same compound, the residual activity (MAPK15 (human); compound 10.0 µM) was 67%, the residual activity (PKN2 (human); compound 1.0 µM) was 90% and the residual activity (PKN2 (human); compound 10.0 µM) was 84%. The residual activity (MAP3K1 (human); compound 1.0 µM) was 69%, the residual activity (MAP3K1 (human); compound 10.0 µM) was 85% and the residual activity (NEK2 (human); compound 1.0 µM) was 108%. For the same compound, the residual activity (NEK2 (human); compound 10.0 µM) was 103%, the residual activity (PRKAA1 or PRKAA2 (rat); compound 1.0 µM) was 91% and the residual activity (PRKAA1 or PRKAA2 (rat); compound 10.0 µM) was 89%. It also gave a residual activity (IGF1R (human); compound 1.0 µM) of 89%, a residual activity (IGF1R (human); compound 10.0 µM) of 67% and a residual activity (MAPK1 (human); compound 1.0 µM) of 83%. For the same compound, the residual activity (MAPK1 (human); compound 10.0 µM) was 95%, the residual activity (CHEK2 (human); compound 1.0 µM) was 95% and the residual activity (CHEK2 (human); compound 10.0 µM) was 94%. For the same compound, the residual activity (MAPKAPK2 (human); compound 1.0 µM) was 115%, the residual activity (MARK2 (human); compound 1.0 µM) was 101% and the residual activity (MARK2 (human); compound 10.0 µM) was 95%. The residual activity (MKNK1 (human); compound 1.0 µM) was 89%, the residual activity (MKNK1 (human); compound 10.0 µM) was 90% and the residual activity (AURKB (human); compound 1.0 µM) was 93%. The residual activity (AURKB (human); compound 10.0 µM) was 82%, the residual activity (PIM2 (human); compound 1.0 µM) was 91% and the residual activity (PIM2 (human); compound 10.0 µM) was 96%. For the same compound, the residual activity (GCK (human); compound 1.0 µM) was 22%, the residual activity (GCK (human); compound 10.0 µM) was 11% and the residual activity ([1]; compound 1.0 µM) was 87%. For the same compound, the residual activity ([1]; compound 10.0 µM) was 85%, the residual activity (YES1 (human); compound 1.0 µM) was 92% and the residual activity (YES1 (human); compound 10.0 µM) was 93%. For the same compound, the residual activity (SRC (human); compound 1.0 µM) was 83%, the residual activity (SRC (human); compound 10.0 µM) was 130% and the residual activity (PRKACA (human); compound 10.0 µM) was 92%. The residual activity (CHEK1 (human); compound 1.0 µM) was 81%, the residual activity (CHEK1 (human); compound 10.0 µM) was 100% and the residual activity (MAPK10 (human); compound 1.0 µM) was 87%. For the same compound, the residual activity (MAPK10 (human); compound 10.0 µM) was 77%, the residual activity (EPHB4 (human); compound 1.0 µM) was 102% and the residual activity (EPHB4 (human); compound 10.0 µM) was 96%. For the same compound, the residual activity (STK3 (human); compound 1.0 µM) was 64%, the residual activity (STK3 (human); compound 10.0 µM) was 49% and the residual activity (PRKCA (human); compound 1.0 µM) was 101%. For the same compound, the residual activity (PRKCA (human); compound 10.0 µM) was 94%, the residual activity (MAPK3 (human); compound 1.0 µM) was 85% and the residual activity (MAPK3 (human); compound 10.0 µM) was 83%. The residual activity (NTRK1 (human); compound 1.0 µM) was 50%, the residual activity (MAPK9 (human); compound 10.0 µM) was 97% and the residual activity (CAMKK2 (human); compound 1.0 µM) was 69%. It also gave a residual activity (CAMKK2 (human); compound 10.0 µM) of 59%, a residual activity ([2]; compound 10.0 µM) of 100% and a residual activity (MINK1 (human); compound 1.0 µM) of 72%. For the same compound, the residual activity (MINK1 (human); compound 10.0 µM) was 55%, the residual activity (MKNK2 (human); compound 1.0 µM) was 94% and the residual activity (MKNK2 (human); compound 10.0 µM) was 99%. The residual activity (MAP2K1 (human); compound 1.0 µM) was 78% and the residual activity (MAP2K1 (human); compound 10.0 µM) was 96%.
Work on `CCNc1nc(Nc2cc(F)c(C(=O)N3CCOCC3)cc2OC)ncc1C(F)(F)F` yielded a residual activity (PHKG1 (human); compound 1.0 µM) of 23%, a residual activity (PHKG1 (human); compound 10.0 µM) of 3% and a residual activity (RPS6KA1 KD1 KD2 (human); compound 1.0 µM) of 21%. It also gave a residual activity (RPS6KA1 KD1 KD2 (human); compound 10.0 µM) of 8%, a residual activity (IKBKB (human); compound 1.0 µM) of 91% and a residual activity (IKBKB (human); compound 10.0 µM) of 93%. For the same compound, the residual activity (MAP3K5 (human); compound 1.0 µM) was 44%, the residual activity (MAP3K5 (human); compound 10.0 µM) was 10% and the residual activity (MAPK15 (human); compound 1.0 µM) was 96%. It also gave a residual activity (MAPK15 (human); compound 10.0 µM) of 78%, a residual activity (PKN2 (human); compound 1.0 µM) of 73% and a residual activity (PKN2 (human); compound 10.0 µM) of 65%. The residual activity (MAP3K1 (human); compound 1.0 µM) was 104%, the residual activity (MAP3K1 (human); compound 10.0 µM) was 99% and the residual activity (NEK2 (human); compound 1.0 µM) was 99%. For the same compound, the residual activity (NEK2 (human); compound 10.0 µM) was 92%, the residual activity (PRKAA1 or PRKAA2 (rat); compound 1.0 µM) was 75% and the residual activity (PRKAA1 or PRKAA2 (rat); compound 10.0 µM) was 56%. It also gave a residual activity (IGF1R (human); compound 1.0 µM) of 32%, a residual activity (IGF1R (human); compound 10.0 µM) of 38% and a residual activity (MAPK1 (human); compound 1.0 µM) of 99%. The residual activity (MAPK1 (human); compound 10.0 µM) was 71%, the residual activity (CHEK2 (human); compound 1.0 µM) was 12% and the residual activity (CHEK2 (human); compound 10.0 µM) was 2%. It also gave a residual activity (MAPKAPK2 (human); compound 1.0 µM) of 107%, a residual activity (MAPKAPK2 (human); compound 10.0 µM) of 85% and a residual activity (MARK2 (human); compound 1.0 µM) of 98%. For the same compound, the residual activity (MARK2 (human); compound 10.0 µM) was 73%, the residual activity (MKNK1 (human); compound 1.0 µM) was 92% and the residual activity (MKNK1 (human); compound 10.0 µM) was 45%. It also gave a residual activity (AURKB (human); compound 1.0 µM) of 55%, a residual activity (AURKB (human); compound 10.0 µM) of 18% and a residual activity (PIM2 (human); compound 10.0 µM) of 93%. For the same compound, the residual activity (GCK (human); compound 1.0 µM) was 88%, the residual activity (GCK (human); compound 10.0 µM) was 28% and the residual activity ([1]; compound 1.0 µM) was 89%. For the same compound, the residual activity ([1]; compound 10.0 µM) was 86%, the residual activity (YES1 (human); compound 1.0 µM) was 104% and the residual activity (YES1 (human); compound 10.0 µM) was 104%. For the same compound, the residual activity (SRC (human); compound 1.0 µM) was 87%, the residual activity (SRC (human); compound 10.0 µM) was 83% and the residual activity (PRKACA (human); compound 1.0 µM) was 96%. The residual activity (CHEK1 (human); compound 1.0 µM) was 44%, the residual activity (CHEK1 (human); compound 10.0 µM) was 12% and the residual activity (MAPK10 (human); compound 1.0 µM) was 84%. It also gave a residual activity (MAPK10 (human); compound 10.0 µM) of 50%, a residual activity (EPHB4 (human); compound 1.0 µM) of 96% and a residual activity (EPHB4 (human); compound 10.0 µM) of 87%. The residual activity (STK3 (human); compound 1.0 µM) was 85%, the residual activity (STK3 (human); compound 10.0 µM) was 73% and the residual activity (PRKCA (human); compound 1.0 µM) was 95%. For the same compound, the residual activity (PRKCA (human); compound 10.0 µM) was 97%, the residual activity (MAPK3 (human); compound 1.0 µM) was 85% and the residual activity (MAPK3 (human); compound 10.0 µM) was 54%. For the same compound, the residual activity (NTRK1 (human); compound 1.0 µM) was 81%, the residual activity (NTRK1 (human); compound 10.0 µM) was 63% and the residual activity (MAPK9 (human); compound 1.0 µM) was 104%. For the same compound, the residual activity (MAPK9 (human); compound 10.0 µM) was 89%, the residual activity (CAMKK2 (human); compound 1.0 µM) was 28% and the residual activity (CAMKK2 (human); compound 10.0 µM) was 7%. For the same compound, the residual activity ([2]; compound 1.0 µM) was 92%, the residual activity ([2]; compound 10.0 µM) was 95% and the residual activity (MINK1 (human); compound 1.0 µM) was 115%. The residual activity (MINK1 (human); compound 10.0 µM) was 93%, the residual activity (MKNK2 (human); compound 1.0 µM) was 62% and the residual activity (MKNK2 (human); compound 10.0 µM) was 23%. It also gave a residual activity (MAP2K1 (human); compound 1.0 µM) of 95% and a residual activity (MAP2K1 (human); compound 10.0 µM) of 75%.
